Measurements reported in PMC11481179, “Development and Application of Reversible and Irreversible Covalent Probes for Human and Mouse Cathepsin‐K Activity Detection, Revealing Nuclear Activity” (Advanced Science, 2024).

How the values were obtained:
[1] = system: primary human osteoclasts (enriched monocytic cells); experiment: Cell viability assay (methylene blue); type: cell-based; conditions: 48 h incubation
Method: Figure 5 Labeling of endogenous cathepsin K in intact human osteoclast cells. Enriched human monocytes from PBMC were isolated from healthy donors’ blood, cells were treated with MCSF and RANKL or MCSF alone as indicated for 14 days. a–c) Osteoclasts were treated with vehicle (DMSO) or inhibitors ODN or GD30 [3 µM] in a culture medium for 2 h, followed by incubation with GD32 or GD42 for 8 h or GB123 for 2 h similar to as described in Figure 4. (a, b) Confocal fluorescent microscopy of GD32 and GB123 treated cells after fixation. c) Live cell imaging with GD42. d) SDS PAGE of the human osteoclasts and macrophages incubated with DMSO, ODN or GD30 [5 µM] followed by incubation with GD32 or GD42 [5 µM] for 8 h. e) The same gel was analyzed by western blot with an anti‐CTSK antibody. […] Red fluorescence marks cathepsin activity (ABPs) and blue fluorescence marks nucleus (DAPI). g–i) Cell viability assay. […] After 48 h incubation cells were fixed, and viability was measured by methylene blue. The data were expressed as a percentage of control; data represent the mean of two experiments with triplicates for each treatment (± Standard Deviation). […]
with 5µM GD32 for 24 h prior to the cell lysis. Cell lysates were prepared and analyzed as […]
analyzed as previously described. […]
After 48 h cells were fixed, and viability was measured by quantitative colorimetric assay using […]

CTSL = CTSL (Homo sapiens, UniProt P07711); experiment: In vitro kinetic evaluation of cathepsin inhibition, fluorescent substrate Z-RR-AMC; type: biochemical; conditions: for mode of inhibition: CTSL; for Ki: CTSL 5 nM, pH 6, 37 °C
Sequence of CTSL (P07711 114-333): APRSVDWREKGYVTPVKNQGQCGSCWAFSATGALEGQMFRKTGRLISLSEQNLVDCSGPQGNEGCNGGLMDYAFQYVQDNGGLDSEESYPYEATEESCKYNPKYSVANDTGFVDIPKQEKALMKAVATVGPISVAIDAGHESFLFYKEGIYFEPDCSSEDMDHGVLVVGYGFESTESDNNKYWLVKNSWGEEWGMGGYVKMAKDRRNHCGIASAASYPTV
Method: (§1) used for TLC. Phosphate Buffer Saline (PBS) was purchased from Biological Industries (pH = […]
(§2) 7.4) and was used as a buffer system in all experiments if not indicated otherwise. […]
(§3) Recombinant human CTSB, CTSK, CTSL, and CTSS were supplied by B. Turk (J.
(§4) Stefan Institute).[1] […]
(§5) In vitro kinetic evaluation of labeling recombinant cathepsins:
(§6) Reactions were monitored for 30 min at 37° C in 96-well black flat-bottom microplates […]
(§7) (Greiner, Germany) using Tecan INFINITE M1000 pro plate reader (Tecan, Switzerland), […]
(§8) substrates Z-RR-AMC (CTSL) or Z-FR-AMC (CTSS, CTSB and CTSK), and excitation and […]
(§9) emission wavelengths of 370 and 460 nm, respectively. Cathepsin concentrations in the assay were 0.4 nM (CTSK) or 5 nM (CTSS, CTSB, and CTSL). The buffer was 100 mM Na2HPO4/NaH2PO4, 50 mM NaCl, 5 mM DTT, 0,1% Peg-6000, pH 6. For irreversible inhibitors, reaction data were fitted to the one-phase association formula in GraphPad Prism 9 software: Y=Y0 + (Plateau-Y0)*(1-exp(-K*X)) where in this case Y0 and Y represent fluorescence signal at times 0 and t, respectively, K represent the observed reaction rate kobs and X the inhibitor concentration. Inactivation rates at each inhibitor concentration were obtained by subtracting the inactivation observed in the control sample: kobs – kctrl. The maximal rate of inactivation (kinact) was obtained as the asymptote from equation Y = kinact*X/(Kiapp + X) where X is inhibitor concentration, Y is the observed inactivation rate for each X, and Kiapp is the apparent inhibition constant. Ki values were calculated from IC50 or from Kiapp using formulas Ki = Kiapp / (1 + Km/S) and IC50 = E0/2 + Kiapp, where Km stands for Michalis-Menten constant, S for substrate concentration and E0 for cathepsin concentration.
(§10) The highest inhibitor concentrations in the assay were 50 µM. Measurements were performed in several independent duplicates. Average values are presented with standard deviations. […]
(§11) µM) were pretreated with different concentrations of probes (GD32, GD36, GD37, or GD42)

CTSS = CTSS (Homo sapiens, UniProt P25774); experiment: In vitro kinetic evaluation of cathepsin inhibition, fluorescent substrate Z-FR-AMC; type: biochemical; conditions: for mode of inhibition: CTSS; for times less potent toward CTSS compared to CTSK: selectivity CTSK over CTSS
Sequence of CTSS (P25774 115-331): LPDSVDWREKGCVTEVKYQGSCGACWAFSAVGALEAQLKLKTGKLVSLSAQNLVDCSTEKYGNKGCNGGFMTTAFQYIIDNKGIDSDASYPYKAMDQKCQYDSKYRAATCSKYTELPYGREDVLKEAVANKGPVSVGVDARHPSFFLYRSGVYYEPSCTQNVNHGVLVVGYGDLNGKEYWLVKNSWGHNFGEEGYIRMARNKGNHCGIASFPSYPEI
Method: as §1, §2, §3, §4, §5, §6, §7, §8, §9, §10

CTSB = CTSB (Homo sapiens, UniProt P07858); experiment: as above; type: biochemical; conditions: for mode of inhibition: CTSB; for Ki: CTSB 5 nM, pH 6, 37 °C
Method: as §1, §2
Recombinant human CTSB, CTSK, CTSL, and CTSS were supplied by B. Turk (J. […]
as §5, §6, §7, §8, §9, §10, §11

SMILES | cytotoxicity [1] | mode of inhibition (CTSL) | Ki (CTSL) [µM] | mode of inhibition (CTSS) | Ki (CTSS; CTSS 5 nM, pH 6, 37 °C) [µM] | kinact (CTSS; CTSS 5 nM, pH 6, 37 °C) [s⁻¹] | kinact/Ki (CTSS; CTSS 5 nM, pH 6, 37 °C) [M⁻¹ s⁻¹] | times less potent toward CTSS compared to CTSK (CTSS) [times] | mode of inhibition (CTSB) | Ki (CTSB) [µM]
C#CCNC(=O)[C@H](CC(C)C)N[C@@H](c1ccc(-c2ccc(S(=O)(=O)CCNC(=O)OC(C)(C)C)cc2)cc1)C(F)(F)F [GD30] | No toxicity | – | – | – | – | – | – | – | – | –
C#CCNC(=O)[C@H](CC(C)C)N[C@@H](c1ccc(-c2ccc(S(=O)(=O)CCNC(=O)CCCCC[N+]3=C(/C=C/C=C/C=C4/N(C)c5ccc(S(=O)(=O)O)cc5C4(C)C)C(C)(C)c4cc(S(=O)(=O)O)ccc43)cc2)cc1)C(F)(F)F [GD32] | No toxicity | Reversible | 20 | Irreversible | 0.98 | 0.0022 ± 0.00009 | 2220 ± 300 | 115 | Reversible | 9.4
CC(C)C[C@H](N[C@@H](c1ccc(-c2ccc(S(=O)(=O)CCNC(=O)CCCCC[N+]3=C(/C=C/C=C/C=C4/N(C)c5ccc(S(=O)(=O)O)cc5C4(C)C)C(C)(C)c4cc(S(=O)(=O)O)ccc43)cc2)cc1)C(F)(F)F)C(=O)NC1(C#N)CC1 [GD37] | – | Reversible | 1.2 | Reversible | 0.06 | – | – | 150 | Reversible | 5.9
